Laboratory results taken from patent US11685744B2, “CDK inhibitors and their use as pharmaceuticals” (Prelude Therapeutics, Incorporated, priority 2020, dated 2023).
Where two headings read alike, the source gives them in different places.

Key:
[1] = target: CDK4/Cyclin D1 (Homo sapiens (Human), UniProt P11802); test: CDK4/CyclinD1 enzymatic activity assay (TR-FRET); format: biochemical; conditions: ATP 2 mM, read-out: CDK4_D1 IC50
In short: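 Insect-cell CDK4/Cyclin D1 (1 nM) with ULight-4E-BP1 (100 nM) and 2 mM ATP in HEPES pH 7.4 buffer, preincubated 20 min with compound (9-dose, 3-fold dilutions); 10 mM MgCl2 started the reaction, run 60 min at 37 °C. EDTA/Eu-anti-phospho-4E-BP1 TR-FRET detection; IC50 from 4-parameter Hill fit.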

[2] = system: MCF7 adenocarcinoma cell line; test: Cell proliferation studies in MCF7 cells (ATP-Lite, 10 days); format: cell-based; conditions: read-out: PROLIFERATION_CTG_MCF7 IC50
In short: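 Cells were seeded at 100 or 200 per well in DMEM with 10% FBS and dosed in quadruplicate over a 9-point 3-fold dilution. Incubation lasted 10 days at 37 °C, with media exchange and re-dosing on day 5. Viability was read by ATP-Lite luminescence and normalised to background and DMSO, giving IC50.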

[3] = target: CDK6/Cyclin D1 (Homo sapiens (Human), UniProt Q00534); test: CDK6/CyclinD1 enzymatic activity assay (TR-FRET); format: biochemical; conditions: ATP 250 μM, read-out: CDK6_D1 IC50
Protocol: CDK6/CyclinD1 Enzymatic Activity Assay
The inhibitory activity of compounds was evaluated in vitro using TR-FRET assay with white 384-well low volume microplate (Greiner Bio-One). CDK6/Cyclin D1 catalyzed phosphorylation of peptide in the presence and absence of compounds was measured and used in IC50 determination. Recombinant protein complex CDK6/Cyclin D1, expressed from insect cell, was purchased from ProQinase. Testing compounds were dissolved in DMSO at 0.1 mM and tested in 9-dose IC50 mode. The reaction mixture was prepared by mixing CDK6/Cyclin D1 (1 nM final), ULight-4E-BP1 (100 nM final, Perkinelmer, TRF0128-D), and ATP (250 μM final) in assay buffer (20 mM of HEPES pH 7.4, 1 mM of EGTA, 0.05% BSA, 0.005% Tween 20, and 1 mM TCEP). The compound of interest in DMSO was added to each well in 3-fold serial dilution by dispenser (TECAN D300E). After 20 minutes preincubation at room temperature, 0.1 μL MgCl2 (10 mM final) was added to initiate the reaction. Following a 60 minutes incubation at 37° C., the reaction was stopped by addition of 2 μL of quenching buffer consisting of Lance detection buffer (Perkinelmer CR97-100C), 2 nM LANCE Ultra Europium-anti-P-4E-BP1 (Perkinelmer, TRF0216-D), 10 mM EDTA, and incubate at room temperature for additional 60 minutes in dark. The reaction signal was measured by Envision multimode plate reader (PerkinElmer, 2102-0010). IC50 values were determined by fitting the data to the standard 4 parameters with Hill Slope using GraphPad Prism software.

[4] = Brain-to-plasma ratio (Kp) determination in Sprague-Dawley rats; conditions: male, rat, po, 10 mg/kg
Protocol: The brain-to-plasma ratio (Kp) was determined in male Sprague-Dawley rats (7-9 weeks old) four hours after a single oral dose. Rats were acclimated and given free access to standard rodent chow and water throughout the entire study. Test articles were formulated as a solution at 0.3, 0.4, 0.5, or 1.0 mg/mL in a vehicle comprised of 10:15:75 (v:v:v) dimethylacetamide (DMA):Solutol HS15:water and delivered orally at a rate of 10 mL/kg to three rats to achieve final doses of 3, 4, 5, or 10 mg/kg, respectively. At 4 hours post-dose, blood samples were collected via jugular vein cannula into tubes containing K2EDTA as the anticoagulant and stored on ice. Blood samples were then centrifuged at 4° C. at 6000 rpm for 5 minutes, and the resulting plasma was placed into tubes and stored frozen at −80° C. until analysis. Whole brain samples were also collected at 4 hours post-dose. The weight of each brain was measured and recorded, and samples were immediately stored on dry ice. Brain samples were then transferred to storage at −80° C. until analysis.
Prior to analysis, brain samples were combined with water (4 mL/1 gram of brain) and homogenized. Prior to injection, plasma and brain homogenate samples and standards were prepared for analysis by precipitation with acetonitrile or 1:1 (v:v) methanol:acetonitrile. Samples were then thoroughly mixed, centrifuged at 4000 rpm for 15 minutes, and the resulting supernatant was transferred for analysis. Test article concentrations in plasma and brain homogenate were then determined by LC-MS/MS and quantified against calibration standards prepared to known concentrations in matched blank (analyte-free) biological matrix. The Kp was then determined by dividing the dilution-corrected brain concentration by the plasma concentration from each rat. A brain density of 1 gram/mL was assumed for all calculations.

[5] = brain (homogenate) versus plasma

Sequence of CDK4/Cyclin D1 (P11802 whole entry): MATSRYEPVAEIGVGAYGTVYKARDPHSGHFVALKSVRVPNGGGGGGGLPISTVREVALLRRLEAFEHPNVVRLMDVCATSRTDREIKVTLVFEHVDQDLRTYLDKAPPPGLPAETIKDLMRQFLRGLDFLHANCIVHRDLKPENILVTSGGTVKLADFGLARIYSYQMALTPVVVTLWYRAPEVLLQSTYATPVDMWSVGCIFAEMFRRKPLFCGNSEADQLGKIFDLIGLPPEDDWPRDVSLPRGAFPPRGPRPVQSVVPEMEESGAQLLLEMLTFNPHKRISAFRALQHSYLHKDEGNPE
Sequence of CDK4/Cyclin D1 (P24385 whole entry partner): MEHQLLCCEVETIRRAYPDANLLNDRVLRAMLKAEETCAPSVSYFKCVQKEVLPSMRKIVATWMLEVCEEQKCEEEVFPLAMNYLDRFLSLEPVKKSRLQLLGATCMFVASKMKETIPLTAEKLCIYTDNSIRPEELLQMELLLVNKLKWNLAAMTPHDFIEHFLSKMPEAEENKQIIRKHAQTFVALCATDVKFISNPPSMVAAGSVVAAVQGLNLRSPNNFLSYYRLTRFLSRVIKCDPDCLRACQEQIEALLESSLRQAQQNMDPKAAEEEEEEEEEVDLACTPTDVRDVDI
Sequence of CDK6/Cyclin D1 (Q00534 whole entry): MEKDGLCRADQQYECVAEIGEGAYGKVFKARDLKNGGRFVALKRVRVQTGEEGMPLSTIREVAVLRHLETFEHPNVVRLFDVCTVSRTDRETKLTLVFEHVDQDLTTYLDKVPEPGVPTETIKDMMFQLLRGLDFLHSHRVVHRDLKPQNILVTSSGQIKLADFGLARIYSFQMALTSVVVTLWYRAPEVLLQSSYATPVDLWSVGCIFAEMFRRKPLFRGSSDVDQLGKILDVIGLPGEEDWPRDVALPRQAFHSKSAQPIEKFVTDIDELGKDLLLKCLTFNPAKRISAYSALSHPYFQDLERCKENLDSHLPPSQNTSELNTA
Sequence of CDK6/Cyclin D1 (P24385 whole entry partner): as the sequence (P24385 whole entry partner) above

SMILES	IC50 [1] [µM]	IC50 ([2]; Homo sapiens, 240 h) [µM]	IC50 [3] [µM]	Kp at 4 h [4, 5]	Kp at 4 h ([4]; brain / plasma)	IC50 [2] [µM]
Cc1c(-c2nc(Nc3ccc(C4CCCN(C)C4)cn3)ncc2F)sc2c1ncn2C(C)C (single isomer, unassigned) [Example 125, 5-Fluoro-N-[5-[-1-methylpiperidin-3-yl]pyridin-2-yl]-4-(6-methyl-3-propan-2-ylthieno[2,3-d]imidazol-5-yl)pyrimidin-2-amine]	≤ 0.02	0.02 to 0.2	≤ 0.02	1 to 3	–	–
CCN1CCC(c2ccc(Nc3ncc(F)c(-c4sc5c(nc(C)n5C5CCC5)c4C)n3)nc2)CC1 [Example 8, 4-(3-Cyclobutyl-2,6-dimethyl-3H-thieno[2,3-d]imidazol-5-yl)-N-(5-(1-ethylpiperidin-4-yl)pyridin-2-yl)-5-fluoro-pyrimidin-2-amine]	≤ 0.02	0.02 to 0.2	–	1 to 3	–	–
CCN1CC2(C1)CN(c1ccc(Nc3ncc(F)c(-c4cc5nccc(C(C)(C)O)c5s4)n3)nc1)C2 [Example 21, 2-[2-[2-[[5-(6-Ethyl-2,6-diazaspiro[3.3]heptan-2-yl)pyridin-2-yl]amino]-5-fluoropyrimidin-4-yl]thieno[3,2-b]pyridin-7-yl]propan-2-ol]	≤ 0.02	0.02 to 0.2	–	–	< 1	–
CCN1CCN(Cc2ccc(Nc3ncc(F)c(-c4sc5c(C6CCCC6)ccnc5c4Cl)n3)nc2)CC1 [Example 30, 4-(3-Chloro-7-cyclopentylthieno[3,2-b]pyridin-2-yl)-N-[5-[(4-ethylpiperazin-1-yl)methyl]pyridin-2-yl]-5-fluoropyrimidin-2-amine]	≤ 0.02	0.02 to 0.2	0.02 to 0.2	–	–	–
CCN1CC2(C1)CN(c1ccc(Nc3ncc(F)c(-c4sc5c(nc(C)n5C(C)C)c4C)n3)nn1)C2 [Example 53, 6-(6-Ethyl-2,6-diazaspiro[3.3]heptan-2-yl)-N-(5-fluoro-4-(3-isopropyl-2,6-dimethyl-3H-thieno[2,3-d]imidazol-5-yl)pyrimidin-2-yl)pyridazin-3-amine]	≤ 0.02	0.02 to 0.2	≤ 0.02	–	–	–
CCN1C2CC1CN(c1ccc(Nc3ncc(F)c(-c4cc5c(=O)n(C)cc(C(C)C)c5s4)n3)nc1)C2 [Example 58, 2-(2-((5-(6-Ethyl-3,6-diazabicyclo[3.1.1]heptan-3-yl)pyridin-2-yl)amino)-5-fluoropyrimidin-4-yl)-7-isopropyl-5-methylthieno[3,2-c]pyridin-4(5H)-one]	≤ 0.02	0.02 to 0.2	0.02 to 0.2	–	–	–
CCN1CCN(C(=O)c2ccc(Nc3ncc(F)c(-c4cc5c(=O)n(C)cc(C(C)C)c5s4)n3)nc2)CC1 [Example 59, 2-(2-((5-(4-Ethylpiperazine-1-carbonyl)pyridin-2-yl)amino)-5-fluoropyrimidin-4-yl)-7-isopropyl-5-methylthieno[3,2-c]pyridin-4(5H)-one]	≤ 0.02	0.02 to 0.2	0.02 to 0.2	–	–	–
CCN1CC2(C1)CN(c1ccc(Nc3ncc(F)c(-c4sc5c(c4C)c(=O)ncn5C(C)C)n3)nc1)C2 [Example 62, 6-(2-((5-(6-Ethyl-2,6-diazaspiro[3.3]heptan-2-yl)pyridin-2-yl)amino)-5-fluoropyrimidin-4-yl)-1-isopropyl-5-methylthieno[2,3-d]pyrimidin-4(1H)-one]	≤ 0.02	0.02 to 0.2	≤ 0.02	–	–	–
Cc1c(-c2nc(Nc3ccc(N4CC5(CCN5C)C4)cn3)ncc2F)sc2c1nc(C)n2C(C)C [Example 67, 4-(2,6-Dimethyl-3-propan-2-ylthieno[2,3-d]imidazol-5-yl)-5-fluoro-N-[5-(1-methyl-1,6-diazaspiro[3.3]heptan-6-yl)pyridin-2-yl]pyrimidin-2-amine]	≤ 0.02	0.02 to 0.2	≤ 0.02	–	–	–
CCN1CC2(C1)CN(C(=O)c1ccc(Nc3ncc(F)c(-c4cc5nc(C)n(C(C)C)c5s4)n3)nc1)C2 [Example 71, (6-Dthyl-2,6-diazaspiro[3.3]heptan-2-yl)-[6-[[5-fluoro-4-(2-methyl-3-propan-2-ylthieno[2,3-d]imidazol-5-yl)pyrimidin-2-yl]amino]pyridin-3-yl]methanone]	≤ 0.02	–	0.02 to 0.2	–	–	0.02 to 0.2
Cc1nc2cc(-c3nc(Nc4ccc(N5CC(N(C)C)C5)cn4)ncc3F)sc2n1C(C)C [Example 72, N-[5-[3-(Dimethylamino)azetidin-1-yl]pyridin-2-yl]-5-fluoro-4-(2-methyl-3-propan-2-ylthieno[2,3-d]imidazol-5-yl)pyrimidin-2-amine]	≤ 0.02	0.02 to 0.2	≤ 0.02	–	–	–
Cc1c(-c2nc(Nc3ccc(N4CCN(C)CC4=O)cn3)ncc2F)sc2c1nc(C)n2C(C)C [Example 75, 1-[6-[[4-(2,6-Dimethyl-3-propan-2-ylthieno[2,3-d]imidazol-5-yl)-5-fluoropyrimidin-2-yl]amino]pyridin-3-yl]-4-methylpiperazin-2-one]	≤ 0.02	≤ 0.02	≤ 0.02	–	–	–
Cc1c(-c2nc(Nc3ccc(N4CCN(CC(F)(F)F)CC4)cn3)ncc2F)sc2c(C(C)C)cn(C)c(=O)c12 [Example 80, 2-(5-Fluoro-2-((5-(4-(2,2,2-trifluoroethyl)piperazin-1-yl)pyridin-2-yl)amino)pyrimidin-4-yl)-7-isopropyl-3,5-dimethylthieno[3,2-c]pyridin-4(5H)-one]	0.02 to 0.2	0.2 to 2	0.02 to 0.2	–	–	–
CCN1CC2CC1CN2c1ccc(Nc2ncc(F)c(-c3cc4c(=O)n(C)cc(C(C)C)c4s3)n2)nc1 (stereo not shown) [Example 81, 2-(2-((5-(5-Ethyl-2,5-diazabicyclo[2.2.1]heptan-2-yl)pyridin-2-yl)amino)-5-fluoropyrimidin-4-yl)-7-isopropyl-5-methylthieno[3,2-c]pyridin-4(5H)-one]	≤ 0.02	0.02 to 0.2	≤ 0.02	–	–	–
[2H]C([2H])([2H])n1cc(C(C)C)c2sc(-c3nc(Nc4ccc(C5CCN(C)CC5)cn4)ncc3F)c(C)c2c1=O [Example 85, 2-(5-Fluoro-2-((5-(1-methylpiperidin-4-yl)pyridin-2-yl)amino)pyrimidin-4-yl)-7-isopropyl-3-methyl-5-(methyl-d3)thieno[3,2-c]pyridin-4(5H)-one]	≤ 0.02	0.02 to 0.2	–	> 3	–	–
Cc1c(-c2nc(Nc3ccc(N4CC5(C4)CN(C(C)C)C5)cn3)ncc2F)sc2c(C(C)C)cn(C)c(=O)c12 [Example 92, 2-(5-Fluoro-2-((5-(6-isopropyl-2,6-diazaspiro[3.3]heptan-2-yl)pyridin-2-yl)amino)pyrimidin-4-yl)-7-isopropyl-3,5-dimethylthieno[3,2-c]pyridin-4(5H)-one]	≤ 0.02	0.02 to 0.2	≤ 0.02	–	–	–
Cc1c(-c2nc(Nc3ccc(C4CCNCC4)cn3)ncc2F)sc2c(C(C)C)cn(C)c(=O)c12 [Example 94, 2-(5-Fluoro-2-((5-(piperidin-4-yl)pyridin-2-yl)amino)pyrimidin-4-yl)-7-isopropyl-3,5-dimethylthieno[3,2-c]pyridin-4(5H)-one]	≤ 0.02	0.02 to 0.2	≤ 0.02	–	–	–
Cc1c(-c2nc(Nc3ccc(C4CN(C)C4)cn3)ncc2F)sc2c1nc(C)n2C(C)C [Example 108, 5-Fluoro-4-(3-isopropyl-2,6-dimethyl-3H-thieno[2,3-d]imidazol-5-yl)-N-(5-(1-methylazetidin-3-yl)pyridin-2-yl)pyrimidin-2-amine]	≤ 0.02	0.02 to 0.2	0.02 to 0.2	–	–	–
CCN1CC2(C1)CN(c1ccc(Nc3ncc(F)c(-c4cc5c(=O)n(C)nc(C6CN(C(=O)OC(C)(C)C)C6)c5s4)n3)nc1)C2 [Example 109, tert-Butyl 3-(2-(2-((5-(6-ethyl-2,6-diazaspiro[3.3]heptan-2-yl)pyridin-2-yl)amino)-5-fluoropyrimidin-4-yl)-5-methyl-4-oxo-4,5-dihydrothieno[2,3-d]pyridazin-7-yl)azetidine-1-carboxylate]	≤ 0.02	0.02 to 0.2	0.02 to 0.2	–	–	–
CCN1CCN(c2ccc(Nc3ncc(F)c(-c4sc5c(C(C)C)ccnc5c4C(F)(F)F)n3)nc2)CC1 [Example 121, N-[5-(4-Ethylpiperazin-1-yl)pyridin-2-yl]-5-fluoro-4-[7-propan-2-yl-3-(trifluoromethyl)thieno[3,2-b]pyridin-2-yl]pyrimidin-2-amine]	≤ 0.02	0.02 to 0.2	0.02 to 0.2	–	–	–
